Data from patent publication US8546524B2, “Smoothened polypeptides and methods of use” (The United States of America, as represented by the …, priority 2006, dated 2013).
No end group written: not given here. *: point of attachment. Myristoyl = CCCCCCCCCCCCCC(=O)*

Experiments:
SK-Mel2 melanoma cells = type: cell-based; settings: for inhibitory activity on SK-Mel2 melanoma cells: 48 hours of exposure, second intracellular loop peptides, comment on Table 4; for IC50: MTT assay, SK-Mel2 melanoma cells, 48 hour exposure, Table 4; for inhibitory activity of third loop peptides: comment on Table 5; for inhibition of proliferation of SK-Mel2 cells: 60 hours exposure, FIG. 6
Experimental: (§1) DU145 prostate cancer cells, PC3 prostate cancer cells, MCF7 breast cancer cells, or Mel-SK-2 melanoma cells (American Type Culture Collection, Manassas, Va.) are inoculated in 96 well plates at 200-400 cells/well density in DMEM medium containing 10% fetal bovine serum and allowed to attach for 24 hours. Cell suspension of 100 μl is used for each well. Polypeptides in 100 μl medium at 2× concentration are added the next day and kept in the CO2 incubator for 48 hours While the polypeptides are added at a final concentration between 1 nM and 10 μM, assays are performed on extra reference plates to determine the cell population density at time 0 (T0). The cells are stained with Promega Non-Radioactive Cell Proliferation Assay Kit (MTT) according to manufacture's protocol. The absorbance of the wells is determined at 544 nm by a FLUOstar/POLARstar® Galaxy MicroplateReader (BMG Labtechnologies GmbH, Germany). The assays are performed on control (C) and test (T) cells. Cellular responses are calculated from the data using the following formula: 100×[(T−T0)/(C−T0)] for T>T0 and 100×[(T−T0)/T0] for T<T0.
(§2) Polypeptides based on the second or third intracellular loop of SMO (SMOi2 or i3 polypeptides) (as shown in Table 1) are synthesized as described in Example 1 and are tested as described in Example 2 using MCF-7 breast cancer cells or SK-Mel2 melanoma cells. The IC50 of each peptide as determined by the MTT assay in SK-Mel2 melanoma cells after 48 hour exposure to the peptide is shown in Tables 4 and 5.
Peptides SMOi2-18 and SMOi2-21 are made as essentially described in Example 1 and tested as described in Example 2 using SK-Mel2 cells. Cells are exposed to polypeptides or peptidomimetics for 60 hours.

[1] = test system: MCF-7 breast cancer cells; test: MTT growth inhibition assay in MCF-7 breast cancer cells; type: cell-based; settings: 48-hour treatment, FIG. 1 / FIG. 3
Experimental: as §1, with “The cells are stained with Promega Non-Radioactive Cell Proliferation Assay Kit (MTT) according to manufacture's protocol.” left out, “The assays are performed on control (C) and test (T) cells.” left out, “T<T0. […]” for “T<T0.”
as §2

[2] = test system: gastric adenocarcinoma cells; test: Growth inhibition of gastric adenocarcinoma cells (viable cell mass); type: cell-based; settings: 5 or 10 μM, FIG. 2
[3] = Critical micelle concentration by WMC-77 fluorescence; type: physicochemical; settings: deionized water, 25° C., WMC-77 0.4 μM
Text: To monitor the formation of hydrophobic nanoparticles, a fluorescing imidazoacridone compound WMC-77 (5-{3-[4-(aminopropyl)-piperazin-1-yl]-propylamino}-2,10b-diaza-aceanthrylen-6-one) is used (Tarasov et al., Photochem. Photobiol. 78: 313-322 (2003)). Compounds like WMC-77 tend to enhance their intrinsic fluorescence dramatically when entering an amphiphilic environment of biological macromolecules like DNA (Tarasova et al., 2003, supra) or hydrophobic core of typical micelles (Tarasov et al., Photochem. Photobiol. 70: 568-578 (1999)). […] Atmospheric oxygen quenching is found to be unimportant, since similar values of fluorescence intensity from BIAs are obtained before and after nitrogen purging. […] Uncorrected fluorescence emission spectra are obtained at 25° C. on a Single Photon Counting Spectrofluorometer FLUOROMAX®-2 (Horiba Jobin Yvon, Edison, N.J.). […]
The increase of peptide/fluorophore ratio causes the permanent increase of WMC-77 fluorescence emission intensity, leveling of at ˜2 μM. The changes in the fluorescence signal are similar to those observed during transfer of imidazoacridones from aqueous to non-polar media such as organic solvents (Tarasov et al., 1999, supra), to the cores of classic surfactant micelles (Tarasov et al., 1999, supra) or upon binding to DNA (Tarasov et al., 2003, supra). […]

Question: With VWFVVLTYAWHTSFKAL [SMOi2-14] as the substance, how does the “inhibitory activity on SK-Mel2 melanoma cells” value (SK-Mel2 melanoma cells) read?
Answer: does not overcome the loss of activity

Question: And the IC50 (SK-Mel2 melanoma cells)?
Answer: > 5000 nM

Question: With “Ac-YAWHTSFKALGTTYQPLSGKTSYK- εPal [SMOi2-5]” as the substance, how does the IC50 (SK-Mel2 melanoma cells) read?
Answer: 1000 ± 100 nM

Question: Which IC50 (SK-Mel2 melanoma cells) does the source give for “Ac-AKFSTHWAYTLK-εPal (all D-) [SMOi2-17]” here?
Answer: 0.4 ± 0.1 nM

Question: Which IC50 (SK-Mel2 melanoma cells) does the source give for “Ac-LAKFSTHWAYTLK-ε-Pal (all D-) [SMOi2-16]” here?
Answer: 6 ± 0.5 nM

Question: For Pal-LTYAWHTSFKALGTTYQPLSGKYSY [SMOi2-1], which “inhibition of growth of MCF-7 cells” value [1] is on record?
Answer: inhibit the growth of MCF-7 cells

Question: What about the “inhibition of growth of gastric adenocarcinoma cells compared with cyclopamine” value [2] of the same substance?
Answer: as well or better than cyclopamine

Question: For Pal-TYAWHTSFKAL [SMOi2-10], which “inhibitory activity on SK-Mel2 melanoma cells” value (SK-Mel2 melanoma cells) is on record?
Answer: potent inhibitors

Question: Which “inhibitory activity on SK-Mel2 melanoma cells” value (SK-Mel2 melanoma cells) does the source give for Pal-LTYAWHTSFKAL [SMOi2-8] here?
Answer: most potent inhibitors

Question: What about the critical micelle concentration [3] of the same substance?
Answer: 0.5 to 1 µM

Question: For SEKAASKINETMLRK-ε-Pal [SMO i3-12], which “inhibitory activity of third loop peptides” value (SK-Mel2 melanoma cells) is on record?
Answer: among the most potent polypeptides tested

Question: For Pal-LTYAWHTSFK [SMOi2-12], which “inhibitory activity on SK-Mel2 melanoma cells” value (SK-Mel2 melanoma cells) is on record?
Answer: most potent inhibitors

Question: Which “inhibitory activity on SK-Mel2 melanoma cells” value (SK-Mel2 melanoma cells) does the source give for Ac-LTYAWHTSFKAL [SMOi2-9] here?
Answer: significantly reduces the inhibitory activity

Question: For Pal-LTYAWHTSFKA [SMOi2-11], which “inhibitory activity on SK-Mel2 melanoma cells” value (SK-Mel2 melanoma cells) is on record?
Answer: most potent inhibitors

Question: Which “inhibitory activity of third loop peptides” value (SK-Mel2 melanoma cells) does the source give for PalRGVMTLFSIKSNHPGLLSEKA [SMO i3-2] here?
Answer: among the most potent polypeptides tested

Question: Which “inhibitory activity on SK-Mel2 melanoma cells” value (SK-Mel2 melanoma cells) does the source give for “Pal-LTYABpaHTSFKAL-Hcy-Biotin [SMOi2-21]” here?
Answer: totally abolishes the activity

Question: And the “inhibition of proliferation of SK-Mel2 cells” value (SK-Mel2 melanoma cells)?
Answer: even more potent than that of the polypeptide counterpart, SMOi2-8

Question: For “Ac-KFSTHWAYTLK- εPal (all D-) [SMOi2-20]”, which “inhibitory activity on SK-Mel2 melanoma cells” value (SK-Mel2 melanoma cells) is on record?
Answer: most potent inhibitors

Question: What about the IC50 (SK-Mel2 melanoma cells) of the same substance?
Answer: 0.3 ± 0.1 nM

Question: Which “inhibitory activity on SK-Mel2 melanoma cells” value (SK-Mel2 melanoma cells) does the source give for PalLTYAWHTSFKAL (All D) [SMOi2-24] here?
Answer: most potent inhibitors

Question: What does the source list for “PalRGVMTLFSIKSNHPGLLSEKAASKINETMLR [SMO i3-1]”?
Answer: inhibition of growth of MCF-7 cells [1]: most significant effect on cell growth; inhibition of growth of gastric adenocarcinoma cells compared with cyclopamine [2]: as well or better than cyclopamine; inhibitory activity of third loop peptides (SK-Mel2 melanoma cells): among the most potent polypeptides tested

Question: With Pal-LTYAWHTSFKALGTTYQP [SMOi2-6] as the substance, how does the “inhibitory activity on SK-Mel2 melanoma cells” value (SK-Mel2 melanoma cells) read?
Answer: potent inhibitors

Question: Which “inhibitory activity on SK-Mel2 melanoma cells” value (SK-Mel2 melanoma cells) does the source give for Pal-LTYABpaHTSFKAL [SMOi2-18] here?
Answer: fairly active

Question: What about the “inhibition of proliferation of SK-Mel2 cells” value (SK-Mel2 melanoma cells) of the same substance?
Answer: even more potent than that of the polypeptide counterpart, SMOi2-8

Question: With WFVVLTYAWHTSFKAL [SMOi2-15] as the substance, how does the “inhibitory activity on SK-Mel2 melanoma cells” value (SK-Mel2 melanoma cells) read?
Answer: does not overcome the loss of activity

Question: What about the IC50 (SK-Mel2 melanoma cells) of the same substance?
Answer: > 5000 nM

Question: Which results are given for Myristoyl-LTYAWHTSFKAL [SMOi2-26]?
Answer: inhibitory activity on SK-Mel2 melanoma cells (SK-Mel2 melanoma cells): most potent inhibitors; potency relative to palmitoyl peptide (fold less potent) (SK-Mel2 melanoma cells; myristoyl instead of palmitoyl residue): 2.5 fold

Question: With Ac-LLSEKAASKINETMLRK-[…]ε-Pal [SMO i3-6] as the substance, how does the “inhibitory activity of third loop peptides” value (SK-Mel2 melanoma cells) read?
Answer: among the most potent polypeptides tested

Question: For “Pal-LTYAWHTSFKALGTTYQPLSGKTSYK- ε-Pal [SMOi2-23]”, which “inhibitory activity on SK-Mel2 melanoma cells” value (SK-Mel2 melanoma cells) is on record?
Answer: most potent inhibitors

Question: With PalRGVMTLFSIKSNHPGLLS [SMO i3-8] as the substance, how does the “inhibitory activity of third loop peptides” value (SK-Mel2 melanoma cells) read?
Answer: among the most potent polypeptides tested

Question: For Ac-GTTYQPLSGKTSYK-εPal [SMOi2-7], which “inhibitory activity on SK-Mel2 melanoma cells” value (SK-Mel2 melanoma cells) is on record?
Answer: potent inhibitors

Question: Which IC50 (SK-Mel2 melanoma cells) does the source give for “Ac-LTYAWHTSFKALGTTYQPLSGKTSYK- ε-Pal [SMOi2-4]” here?
Answer: 1000 ± 100 nM

Question: With “PalLFSIKSNHPGLLSEKAASKINETMLR [SMO i3-4]” as the substance, how does the “inhibitory activity of third loop peptides” value (SK-Mel2 melanoma cells) read?
Answer: significantly less active
